Where “and” joins values, the source holds several entries; their conditions need not be identical. Equal values may be shown once. Read-outs that look alike come from different tables or passages of the source. Values belong to the compound of their own block, whether it stands above or below them.
Assays:
LCE [1] = assay: Influence of enzyme inhibitors or activators on LCE activity, kidney membrane fraction; assay type: biochemical, Balb/c
Procedure: Das Pipettierschema ist in der folgenden Tabelle angegeben. Tabelle
Zur Untersuchung der enzymatischen Spaltung in Abhängigkeit von der Substratkonzentration wurde eine Substratstammlösung von 0.98 nmol [^14C]-AZT-DMDOPE und 0.7 nmol AZT-DMDOPE/80 µl Aqua bidest. im LCE-Assay angesetzt. Die verschiedenen Substratkonzentrationen im LCE-Assay wurden durch kontinuierliche Verdopplung bzw. Halbierung des Volumens an Substratlösung eingestellt. Die Ansätze wurden in Glasröhrchen (5 ml) vorgelegt und durch Zugabe der Substratlösung gestartet. Die Inkubation wurde bei 37 °C im Wasserbad unter leichtem Schütteln durchgeführt.
Die Reaktionsansätze des LCE-Assays wurden nach entsprechender Inkubationszeit dem Wasserbad entnommen, und die Reaktion durch Zugabe von 750 µl 2-Propanol gestoppt. Nach gründlicher Durchmischung wurden die Ansätze anschließend mit 700 µl auf Raumtemperatur erwärmtem n-Heptan versetzt. Die Ansätze wurden erneut für 30 sec gut gemischt und zur Beschleunigung der Phasentrennung in der Minifuge T bei 3200 rpm für 15 min bei Raumtemperatur zentrifugiert. Anschließend wurden 500 µl der oberen Phase (n-Heptan) entnommen und in neue Glasröhrchen (5 ml) mit 10 mg Kieselgel 60 H und 200 µl n-Heptan überführt. Die Ansätze wurden für 30 sec gut durchmischt und zur Sedimentation des Kieselgels für 10 min unter oben genannten Bedingungen zentrifugiert. Vom Überstand wurden anschließend 500 µl entnommen und mit 3 ml Szintillationsflüssigkeit versetzt. Die Messung der Radioaktivität erfolgte für 4 min im Flüssigkeits-Szintillations-Analysator. Zur Bestimmung des Absolutwertes an Radioaktivität wurden 200 µl der Substratlösung mit 3 ml Szintillationsflüssigkeit versetzt und unter gleichen Bedingungen im Flüssigkeits-Szintillations-Analysator gemessen.

LCE [2] = assay: LCE assay: dependence of AZT-DMDOPE cleavage on EGTA and divalent metal cations; assay type: biochemical, human; conditions: for DMDOP / Spezifische Aktivität / Inhibition: Effektor 2 mM, 2 h 37 °C, n = 3; for DMDOP / Spezifische Aktivität: Membranfraktionen stimulierter humaner PBL 0.068 mg/Ansatz; for Inhibition: relative to EGTA, Membranfraktionen stimulierter humaner PBL; for Inhibierung der LCE-Aktivität (in words): divalent metal cations, 2 mM in Example 9
Procedure: Die Abhängigkeit der enzymatischen Spaitung von AZT-DMDOPE durch das LCE von zweiwertigen Metallkationen wurde mit Membranfraktionen stimulierter humaner PBL als Enzymquelle untersucht.
Die zweiwertigen Metallkationen wurden in einer Konzentration von 2 mM im LCE-Assay eingesetzt. Die Proteinkonzentration wurde mit 0.068 mg/Ansatz festgelegt.
Parallel wurde ein Ansatz mit EGTA mitgeführt. EGTA ist ein spezifischer Komplexbildner für Ca^2+ das essentiell für die Aktivität der Phospholipase C ist. Nach einer Inkubationszeit von 2 h bei 37 °C wurde der Umsatz der Muttersubstanz gemessen und die spezifische Aktivität des LCE bestimmt (folgende Tabelle).

LCE [3] = assay: Substrate cleavage by LCE; assay type: biochemical; conditions: cleavage to drug monophosphate and DMDOP
Excerpt: Das Enzym wird vorzugsweise aus humanen peripheren Blutleukozyten, die zuvor durch PHA oder andere Stimulantien (z.B. Cytokine, etc.) aktiviert wurden, oder aus murinen Nierenzellen isoliert. Aus vorläufigen Untersuchungen ergibt sich ein Molekulargewicht von etwa 120.000 - 160.000, bestimmt nach der SDS-PAGE-Methode. Zellen, die dieses Enzym enthalten, können auf einfache Weise dadurch identifiziert werden, indem sie unter geeigneten Testbedingungen mit einer Lösung von AZT-DMDOPE oder FLT-DMDOPE versetzt werden und die Spaltprodukte AZT-monophosphat bzw. FLT-monophosphat oder DMDOP nachgewiesen werden, beispielsweise durch dünnschichtchromatographische Methoden oder im Fall von radioaktiv markierten Proben durch szintillatographische Verfahren (siehe Beispiele 4 - 7). Im Gegensatz zu den biochemisch verwandten Phospholipasen C oder -D wird das LCE nicht durch bekannte Inhibitoren von Phospholipase C oder -D gehemmt oder durch Aktivatoren von Phospholipase C oder -D aktiviert. Im Gegensatz zu Phospholipase C wird das Enzym durch die Substanz D 609 (Tricyclodecan-9-yl-xanthogenat; C11H15OS2 K) aktiviert, während D 609 Phospholipase C inhibiert.

stimulierten PBL = conditions: stimulierte PBL, Arner et al., 1992; cited from earlier work
[4] = biological target: virale reverse Transkriptase (RT) (Human immunodeficiency virus type 1 group M subtype B, UniProt P04585); conditions: intracellular AZT in non-phosphorylated form; cited from earlier work
stimulierten humanen PBL [5] = assay: Intracellular concentrations of AZT and AZT nucleotides (radioimmunoassay) in stimulated human PBL; conditions: for Konzentrationen an AZT und AZT-Nukleotiden nach Abfall bei zunehmender Inkubationszeit: up to 24 h
Excerpt: Zur Bestimmung der intrazellulären Konzentrationen an AZT und/oder AZT-Nukleotiden nach Inkubation mit AZT-DMDOPE bzw. AZT wurden humane PBL aus "Buffy coat" isoliert.
Hierfür wurde "Buffy-coat" von gesunden Spendern gemischt und durch Zentrifugation in einem isotonischen Medium mit einer Dichte von 1.077 g/ml fraktioniert. Da mononukleare Blutzellen (Monozyten und Lymphozyten) eine geringere Dichte als Erythrozyten und polymorphkernige Granulozyten haben, bilden sie einen Ring an der Grenze zwischen Trennmedium und Probe und können mit Hilfe einer Pipette abgenommen werden. Erythrozyten und polymorphkernige Granulozyten sedimentieren aufgrund ihrer höheren Dichte durch das Medium und lassen sich somit von PBL separieren. Zur Stimulation der Zellproliferation wurde Phytohämaglutinin A (Mukoprotein) (PHA-M), der mitogene Lektinextrakt aus der roten Feuerbohne (Phaseolus vulgaris), eingesetzt. Phytohämagglutinin ist eine Familie von 5 Isolektinen, die als Tetramere vorliegen. Die Untereinheiten bestehen aus einem lymphozytenreaktiven Typ-L und einem erythrozytenreaktiven Typ-E. Typ-L hat eine hohe Affinität zu Lymphozytenoberflächenrezeptoren und ist somit verantwortlich für die mitogenen Eigenschaften. Die Stimulation der Lymphozyten wurde in KPMI 1640 Komplettmedium III für 72 h bei 37 °C und 5 % CO2 durchgeführt. Nach Beendigung der Stimulation wurden zur Erhöhung der Zellzahl die Zellen für weitere 24 h in RPMI 1640 Komplettmedium IV kultiviert.
Zur Bestimmung der intrazellulären Konzentrationen an AZT und AZT-Nukleotiden wurden die Zellen in RPMI 1640 Komplettmedium II mit einer Dichte von 1 x 10^6 Zellen/ml in Gewebekulturflaschen (50 ml/25 cm^2) überführt, und in Anwesenheit von 0.03 bzw. 0.3 µg AZT/ml (Charge 15) und 1 bzw. 10 µg AZT-DMDOPE/ml für 1 - 24 h inkubiert.
Die Kulturen wurden anschließend für 1, 3, 6 und 24 h bei 37 °C und 5 % CO2 inkubiert. AZT und seine Nukleotide wurden anschließend mit 60 % Methanol extrahiert. Die extrahierten Nukleotide wurden mit alkalischer Phosphatase quantitativ zu AZT dephosphoryliert, da nur AZT, nicht jedoch die entsprechenden Nukleotide mit Hilfe eines Radioimmuno-Assays detektiert werden kann.
Die Konzentrationen an intrazellulärem AZT, die mit Hilfe des Radioimmuno-Assays bestimmt wurden, setzten sich dementsprechend aus der des AZT und den der AZT-Nukleotide zusammen. Eine separate Quantifizierung der Konzentrationen an AZT-MP, AZT-DP und AZT-TP wurde nicht durchgeführt.
Diese Experimente wurden an stimulierten humanen PBL durchgeführt.
Hierfür wurden Zellsuspensionen mit einer Dichte von 10^6 Zellen/ml mit 1 bzw. 10 µg AZT-DMDOPE/ml für 6 bzw. 24 h bei 37 °C und 5 % CO2 inkubiert.
Zur quantitativen Bestimmung von AZT wurde ein kommerzieller ^125J-AZT RIA Test-Kit verwendet. Puffer und Lösungen wurden gemäß den Angaben des Herstellers angesetzt und im Test-Kit eingesetzt. Die Reaktionsansätze wurden nach untenstehendem Schema (Tab. ) pipettiert, vorsichtig gemischt und für 2 h bei Raumtemperatur inkubiert. Anschließend wurden zur Präzipitation des Komplexes aus ^125J-AZT und des AZT-Antikörpers (aus Kaninchen) 500 µl des Ziege-Anti-Kaninchen-Antikörpers hinzugefügt. Die Ansätze wurden gemischt und erneut bei Raumtemperatur für 30 min inkubiert.

P3X63Ag8.653-Zellen = assay: Intracellular concentrations of AZT and AZT nucleotides (radioimmunoassay) in thymidine kinase deficient cells; assay type: in vitro ADME; conditions: after 48 h
Excerpt: Die Bestimmung der intrazellulären Konzentrationen an AZT und AZT-Nukleotiden in Thymidikinasedefizienten Zellen sollte weitere Erkenntnisse über die intrazelluläre Spaltung der Testsubstanz AZT-DMDOPE liefern. Intrazelluläres AZT kann in diesen Zellen aufgrund eines Mangels an Thymidin-Kinase (TK) nicht in ATZ-MP und somit in das therapeutisch wirksame AZT-TP überführt werden. Die Bestimmung der intrazellulären Konzentrationen an AZT und AZT-Nukleotiden nach Inkubation mit AZT-DMDOPE könnte somit einen weiteren Hinweis auf die Spaltung der Teststubstanz geben.
Hierfür wurden in Gewebekulturschalen (60 x 15 mm) 1 x 10^7 Zellen in RPMI 1640 Komplettmedium I mit 0.03 bzw. 0.3 µg AZT/ml und 1 bzw. 10 µg AZT-DMDOPE/ml über 6, 24 und 48 h inkubiert. Nach Extraktion von AZT und der AZT-Nukleotide und einer Behandlung mit alkalischer Phosphatase wurde die Konzentration an AZT mit Hilfe des Radioimmuno-Assays bestimmt.

stimulierten humanen PBL [6] = assay: Intracellular decay kinetics of AZT and AZT nucleotides after removal of the incubation solution; assay type: in vitro ADME, human; conditions: 24 h preincubation with 0.3 µg AZT/ml, reached 6 h after removal
Procedure: Stimulierte humane PBL wurden für 24 h mit 0.3 µg AZT/ml bzw. 10 µg AZT-DMDOPE/ml inkubiert. Anschließend wurden 1 x 10^7 Zellen in Gewebekulturflaschen (50 ml/25 cm^2) mit RPMI 1640 Komplettmedium I überführt. Nach 1, 3, 6, 24 und 48 h wurde AZT und die AZT-Nukleotide aus der zellulären Matrix extrahiert. Nach einer Behandlung mit alkalischer Phosphatase wurde mit Hilfe des Radioimmuno-Assays die Konzentration an AZT bestimmt.

[7] = tested on: nichtstimulierten humanen PBL; assay: Intracellular concentrations of AZT and AZT nucleotides (radioimmunoassay) in non-stimulated human PBL; assay type: in vitro ADME
Excerpt: AZT wurden humane PBL aus "Buffy coat" isoliert.

[8] = LCE Membranfraktion Niere (Balb/c)

Einfluß auf LCE-Aktivität (LCE [1]; [8]): keine
Compound: Nc1ncnc2c1ncn2C1CCCO1 (stereo not shown) [SQ 22536]

Compound: [Cl][Mn][Cl] [MnCl2]
DMDOP (LCE [2]): 4.75 ± 0.63 pmol | Spezifische Aktivität (LCE [2]): 0.58 ± 0.08 pmol/mg/min | Inhibition (LCE [2]): 94% | Inhibierung der LCE-Aktivität (in words) (LCE [2]): totalen Hemmung | Inhibierung der LCE-Aktivität (in words) (LCE [2]; listed as Mn^2+): Inhibierung

Compound: ZnCl2
Spezifische Aktivität (LCE [2]): 0 pmol/mg/min | Inhibition (LCE [2]): 100.0% | Inhibierung der LCE-Aktivität (in words) (LCE [2]): totalen Hemmung | Inhibierung der LCE-Aktivität (in words) (LCE [2]; listed as Zn^2+): Inhibierung

Compound: CCCCCCCCCCCCSCC(COP(=O)(O)OC[C@H]1O[C@@H](n2cc(C)c(=O)[nH]c2=O)C[C@@H]1F)OCCCCCCCCCC (stereo partly shown) [FLT-DMDOPE, (3'-Desoxy-3'-fluorthymidin)-5'-phosphorsäure-(3-dodecylmercapto-2-decyloxy)-propylester]
Spaltung durch LCE (LCE [3]): gespalten

Compound: Cc1cn([C@H]2C[C@H](N=[N+]=[N-])[C@@H](COP(=O)(O)O)O2)c(=O)[nH]c1=O [AZT-MP, 3'-Desoxy-3'-azidothymidin-monophosphat]
im Vergleich zu AZT-DP und AZT-TP um Faktor höhere Konzentration an AZT-MP (stimulierten PBL): 40

Einfluß auf LCE-Aktivität (LCE [1]; [8]): keine
Compound: Neomycin

Compound: O=C(O)CN(CCOCCOCCN(CC(=O)O)CC(=O)O)CC(=O)O [EGTA]
DMDOP (LCE [2]): 84.96 ± 11.18 pmol | Spezifische Aktivität (LCE [2]): 10.41 ± 1.37 pmol/mg/min | Inhibition (LCE [2]): ≡ 0%

Compound: CaCl2
DMDOP (LCE [2]): 50.50 ± 2.13 pmol | Spezifische Aktivität (LCE [2]): 6.19 ± 0.26 pmol/mg/min | Inhibition (LCE [2]): 41.0 ± 0.25% and 41.0 ± 2.5% | Inhibierung der LCE-Aktivität (in words) (LCE [2]): Inhibierung

Compound: MgCl2
DMDOP (LCE [2]): 84.36 ± 17.02 pmol | Spezifische Aktivität (LCE [2]): 10.34 ± 2.08 pmol/mg/min | Inhibition (LCE [2]): 0% | Inhibierung der LCE-Aktivität (in words) (LCE [2]): keine Inhibierung

Compound: CCCCCCCCCCCCSCC(COP(=O)(O)OC[C@H]1O[C@@H](n2cc(F)c(=O)[nH]c2=O)[C@H](O)[C@@H]1O)OCCCCCCCCCC (stereo partly shown) [5-FU-DMDOPE, (5-Fluoruridin)-5'-phosphorsäure-(3-dodecylmercapto-2-decyloxy)-propylester]
Spaltung durch LCE (LCE [3]): gespalten

Compound: CC(=O)Oc1ccccc1C(=O)O [Acetylsalicylsäur e]
Einfluß auf LCE-Aktivität (LCE [1]; [8]): keine

Einfluß auf LCE-Aktivität (LCE [1]; [8]): keine
Compound: Nc1nc2c(ncn2C2OC(COP(=O)(O)OP(O)(=S)OP(=O)(O)O)C(O)C2O)c(=O)[nH]1 (stereo not drawn) [GTP-β-S]

Einfluß auf LCE-Aktivität (LCE [1]; [8]): keine
Compound: O=[N+]([O-])c1cccc2cn[nH]c12 [7-Nitroindazol]

Einfluß auf LCE-Aktivität (LCE [1]; [8]): keine
Compound: O=C(NCCCCCCNC(=O)ON=C1CCCCC1)ON=C1CCCCC1 [RHC-80267]

Compound: Cc1cn([C@H]2C[C@H](N=[N+]=[N-])[C@@H](CO)O2)c(=O)[nH]c1=O [AZT, 3'-Desoxy-3'-azidothymidin, reference compound]
inhibitorische Wirkung auf die virale reverse Transkriptase (RT) [4]: keine inhibitorische Wirkung | maximale Konzentrationen an AZT und AZT-Nukleotiden (stimulierten humanen PBL [5]; incubation with 0.03 µg AZT/ml, reached after 6 h): 2.90 ng/10^6 Zellen | Konzentrationen an AZT und AZT-Nukleotiden nach Abfall bei zunehmender Inkubationszeit (stimulierten humanen PBL [5]; incubation with 0.03 µg AZT/ml): 2.32 ng/10^6 Zellen | maximale Konzentrationen an AZT und AZT-Nukleotiden (stimulierten humanen PBL [5]; incubation with 0.3 µg AZT/ml, reached after 3 h): 30.97 ng/10^6 Zellen | Konzentrationen an AZT und AZT-Nukleotiden nach Abfall bei zunehmender Inkubationszeit (stimulierten humanen PBL [5]; incubation with 0.3 µg AZT/ml): 19.88 ng/10^6 Zellen | maximale intrazelluläre Konzentrationen an AZT und AZT-Nukleotiden (P3X63Ag8.653-Zellen; 0.03 µg AZT/ml): 0.03 ng/10^6 Zellen | maximale intrazelluläre Konzentrationen an AZT und AZT-Nukleotiden (P3X63Ag8.653-Zellen; 0.3 µg AZT/ml): 0.31 ng/10^6 Zellen | konstanter Wert der intrazellulären Konzentrationen an AZT und AZT-Nukleotiden (stimulierten humanen PBL [6]): 0.40 ng/10^6 Zellen | intrazelluläre Konzentrationen an AZT und AZT-Nukleotiden ([7]; 0.03 µg AZT/ml): 0.10 ng/10^6 Zellen | intrazelluläre Konzentrationen an AZT und AZT-Nukleotiden ([7]; 0.3 µg AZT/ml): 0.47 ng/10^6 Zellen

Compound: COC[C@H]1OC(=O)c2coc3c2[C@@]1(C)C1=C(C3=O)[C@@H]2CCC(=O)[C@@]2(C)C[C@H]1OC(C)=O [Wortmannin]
Einfluß auf LCE-Aktivität (LCE [1]): keine
